Source: patent publication US10774047B2 (THE TRUSTEES OF THE UNIVERSITY OF PENNSYLVANIA, priority 2015, dated 2020)
Entries after “also recorded” stand apart in the source; their conditions may differ.

Legend:
[1] = tested on: 451Lu (melanoma) cells; test: Bafilomycin clamp experiment (autophagic flux); type: cell-based; details: 3 μM, with or without bafilomycin-A1, 24 hours
[2] = tested on: ATG5 WT and ATG5-null MEFs; test: Long-term colony formation in ATG5+/+ and ATG5-/- MEFs; type: cell-based; details: 2 weeks, 10-300 nM
Experimental: (G) Long-term colony formation assays were performed with ATG5+/+ and ATG5−/− MEFs treated with DQ661 (2 weeks, 10-300 nM). Cells were subsequently stained with crystal violet and imaged.
The clonogenic assay was performed as previously described. Briefly, cells were suspended in appropriate culture media, and plated in 6-well plates (2×10^3 cells/well). Medium was changed and drug treatment refreshed every 3-4 days for 2 weeks. Cells were subsequently stained with crystal violet and quantified.

[3] = tested on: A375P cells; test: Galectin-3 punctae assay (lysosomal membrane permeabilization); type: cell-based; details: 6 hours (LLOMe 3 hr, 2 mM)
Experimental: FIG. 3: Central nitrogen methylation status dictates DNA damage versus lysosomal membrane permeability. […] Cells were imaged with fluorescent microscopy, phospho-H2AX+ cells were scored using ImageJ software analysis and quantified to the right. (B) A375P cells were treated identical to the conditions in (A), with the addition of the positive control LLoMe (3 hr, 2 mM). Cells were subsequently stained with galectin-3 and imaged with fluorescent microscopy. The formation of galectin-3 punctae, which signify lysosomal membrane permeabilization, are pointed out with yellow arrows.
When lysosomes are healthy, galectin-3 is uniformly dispersed throughout the cell. However, when the lysosome is damaged, galectin-3 rapidly localizes to the site of damaged lysosomes, appearing as punctae and marking individual leaky lysosomes.

[4] = tested on: 1205Lu melanoma xenografts; test: 1205Lu melanoma xenograft model; type: in vivo, NSG mice
Experimental: (§1) FIG. 5: DQ661 has significant single-agent in vivo activity in melanoma xenograft model. […]. Mice were randomly split into 4 arms and treated with vehicle control (water, i.p.), quinacrine (8 mg/kg, i.p.), DQ660 (8 mg/kg, i.p.) or DQ661 (8 mg/kg, i.p.). Treatments were given as shown by the black arrows, following a regimen of 2 days on treatment followed by 2 days off treatment. (C) Representative electron micrographs from melanoma xenograft tumors harvested after 2 days of treatment according to (B). (D) Average tumor volumes for each treatment arm are shown. Each point represents the mean of N=8 mice per treatment arm and the error bars represent standard error (s.e.) (C) Representative EM for tumors treated in each arm. (E) A schematic for how mice were treated in (F). […]. Mice were randomly split into 3 arms and treated with water (i.p.), DQ661 (2 mg/kg, i.p.) or DQ661 (4 mg/kg, i.p.). Treatments were give as shown by the black arrows, following a regimen of 2 days on treatment followed by 2 days […]. Tumor volume is shown. Each point represents the mean of N=8 mice per treatment arm and the error bars represent s.e. (G) Average tumor growth rate for each treatment arm are shown. (H) Protein lysate was harvested from mouse tumors at the end of the experiment and immunoblotted for LC3B, phospho-4E-BP1 T37_T65, phospho-4E-BP1 S240_S244 and Actin. Quantification of proteins standardized to control mice levels are shown to the right.
(§2) Five to seven-week old NOD-scid gamma (NSG) mice (Jackson Laboratory) were used for xenograft studies with the 1205Lu melanoma cell line. Tumor generation, tumor measurement and tumor harvesting performed as previously described (ref). For the pancreatic cancer model, five to seven-week old C57BL/6 mice (Jackson Laboratory) and maintained under pathogen-free conditions. 2×10^6 G43 cells were subcutaneously injected with an equal volume of matrigel (BD) over the right flank […] and tumors became palpable after 5-6 days. Mice were enrolled on day 6 and given Gemcitabine (120 mg/kg, i.p.). DQ661 (4 mg/kg, i.p.) was given on days 7, 8, 12, 13, 17 and 18. Perpendicular tumor diameters were measured sing electronic calipers and volume was calculated leveraging the formula L×W^2×0.5, where L is the longest dimension and W is the perpendicular dimension. All animal experiments were performed in accordance to the protocols approved by the Institute of Animal Care and Use Committee of the University of Pennsylvania.
. After 1-2 weeks, tumors were palpable and mice were treated with vehicle control (water), quinacrine (8 mg/kg), DQ660 (8 mg/kg) or DQ661 (8 mg/kg) i.p (FIG. 5A). […]. Therefore another 1205Lu xenograft experiment was performed with mice treated with either vehicle control (water, n=6) or DQ661 (2 or 4 mg/kg, n=6) for a period of 14 days (FIG. 5e, 5F).

[5] = Tolerability in 1205Lu xenograft-bearing mice; type: in vivo
Experimental: as §1, §2
. After 1-2 weeks, tumors were palpable and mice were treated with vehicle control (water), quinacrine (8 mg/kg), DQ660 (8 mg/kg) or DQ661 (8 mg/kg) i.p (FIG. 5A). […]. […]

[6] = tested on: G43 cells; test: G43 KPC pancreatic cancer syngeneic model; type: in vivo, C57BL/6 mice; details: gemcitabine 120 mg/kg i.p. once; DQ661 4 mg/kg i.p. 2 days on 3 days off
Experimental: FIG. 6: DQ661 potentiates in vivo activity of gemcitabine in KPC pancreatic cancer syngeneic model. (A) 4664 and G43 cells were treated with gemcitabine (72 hr, 3-30 nM). MTT was subsequently added and cell viability was determined by standardizing absorbance to control wells. (B) G43 cells were treated chronically for 2 weeks with gemcitabine (3-30 nM) in the presence or absence of DQ661 (30-300 nM) in colony formation assays. Cells were subsequently stained with crystal violet and imaged. (C) A schematic for how mice were treated in (D). G43 cells were injected into C57BL/6 mice (2×10^6 cells/mouse. Once palpable, mice were treated with vehicle (water, PBS), gemcitabine (120 mg/kg, i.p., once at day 6), DQ661 (4 mg/kg, i.p., starting on day 7 according to the regimen of 2 days on treatment followed by 3 days off treatment) or a combination of gemcitabine and DQ661. (D) Average tumor volumes for each treatment arm are shown. Each point represents the mean of N=8 mice per treatment arm and the error bars represent s.e. (E) Tumor growth rate from (D).
Five to seven-week old NOD-scid gamma (NSG) mice (Jackson Laboratory) were used for xenograft studies with the 1205Lu melanoma cell line. […] Perpendicular tumor diameters were measured sing electronic calipers and volume was calculated leveraging the formula L×W^2×0.5, where L is the longest dimension and W is the perpendicular dimension. […]

[7] = tested on: mTORC1; test: mTOR / LAMP2 co-localization imaging; details: A375P cells, 6 hours, 3 μM
[8] = tested on: mTORC1; test: Immunoblot of mTORC1 signaling and LC3B, panel of lysosomal inhibitors; details: A375P cells
[9] = tested on: autophagy; details: background; cited from earlier work
[10] = tested on: G43 cells; test: MTT viability of 4664 and G43 KPC pancreatic cancer cells; type: cell-based, mouse; details: 72 hr
Experimental: FIG. 6: DQ661 potentiates in vivo activity of gemcitabine in KPC pancreatic cancer syngeneic model. (A) 4664 and G43 cells were treated with gemcitabine (72 hr, 3-30 nM). MTT was subsequently added and cell viability was determined by standardizing absorbance to control wells. (B) G43 cells were treated chronically for 2 weeks with gemcitabine (3-30 nM) in the presence or absence of DQ661 (30-300 nM) in colony formation assays. Cells were subsequently stained with crystal violet and imaged. (C) A schematic for how mice were treated in (D). […]
For MTT assays, cells were plated in 96-well plates (2,000 cells/well), allowed to adhere overnight, and subsequently treated in triplicate for 72 hours. MTT reagent (Roche) was applied, cells were solubilized and absorbance was read at 570 nm, with background subtraction at 690 nm. […] Cells were subsequently stained with crystal violet and quantified. […]

SMILES	effect on autophagic flux (LC3II/LC3I ratio with vs without bafilomycin-A1) [1]	cytotoxicity in ATG5 WT vs ATG5-null MEFs [2]	galectin-3 staining pattern [3]	tumor growth ([4]; 8 mg/kg i.p., 2 days on / 2 days off)	autophagy in tumors (electron microscopy) ([4]; 8 mg/kg i.p., tumors harvested after 2 days of treatment)	tumor growth rate ([4]; 2 or 4 mg/kg i.p., 14 days)	tumor volume and tumor weight ([4]; 2 or 4 mg/kg i.p., 14 days)	Western blotting of tumor lysate (LC3, p62, phospho-4EBP1, phospho-S6) ([4]; 2 or 4 mg/kg i.p., end of experiment)	clinical outcome by day 7 ([5]; 8 mg/kg i.p.)	histological analysis of the intestines and liver ([5]; 8 mg/kg i.p.)	weight loss of mice ([5]; 8 mg/kg i.p.)	mice weight ([5]; 2 or 4 mg/kg i.p., 14 days)	tumor growth [6]	mTOR and lysosomal (LAMP2) co-localization [7]	autophagy inhibition (accumulation of LC3II/LC3I levels) among lysosomal inhibitors ([8]; 3 μM)	S6K (and 4E-BP1) phosphorylation ([8]; DQ661 3 μM, PET 10 μM, Bafilomycin A1 100 nM)	mTORC1 activity (Western blotting) ([8]; DQ661 3 μM, Pepstatin A 10 μG/mL, Siramesine 8 μM)	concentrations required to inhibit autophagy [9]	sensitivity of G43 cells relative to parental 4664 cells [10]
COc1ccc2nc3cc(Cl)ccc3c(NCCCCCCN(C)CCCCCCNc3c4ccc(Cl)cc4nc4ccc(OC)cc34)c2c1 [DQ 661]	autophagy inhibitors	equal cytotoxicity in ATG5 WT and ATG5-null MEFs; also recorded: equivalent activity	punctate distribution of galectin-3	inhibited tumor growth to the greatest extent	inhibited autophagy as seen by electron microscopy of mouse tumors	significantly slower rates of growth	significant reduction in tumor volume and tumor weight compared to control mice	concurrent in vivo autophagy inhibition and mTORC1 inhibition	all mice were euthanized due to lethargy and bowel distension	Paneth cell dysfunction	greater than 10%	without significantly effect mice weight	significantly impaired	loss of mTOR and lysosomal co-localization	greatest ability to inhibit autophagy among the entire panel of lysosomal inhibitors	inhibit S6K and 4E-BP1 to a similar degree as the classical control of amino acid starvation	potently inhibits mTORC1 activity	–	–
CCN(CCO)CCCC(C)Nc1ccnc2cc(Cl)ccc12 (centres unmarked) [HCQ, hydroxychloroquine]	–	–	–	–	–	–	–	–	–	–	–	–	–	–	–	–	–	High micromolar concentrations	–
Nc1ccn([C@@H]2O[C@H](CO)[C@@H](O)C2(F)F)c(=O)n1 [gemcitabine, reference compound]	–	–	–	–	–	–	–	–	–	–	–	–	significantly impaired	–	–	–	–	–	resistant to gemcitabine, relative to the parental treatment naïve 4664 cells
